Reference: US9782424B2, “Synergistic combination comprising avermectins and a NSAID for tumor inhibition” (Ectin Research AB, priority 2011, dated 2017)

Legend:
Type in all cases: cell-based, human
[1] = test system: urinary bladder cell line (UM-UC-3); assay: XTT-assay proliferation rate, urinary bladder cell line; settings: UM-UC-3 (Table 3), no IVM
Procedure: (§1) Commercially available human tumor cell lines were purchased from ATCC (ATCC/LGC-standards, Borás, Sweden). […] Briefly, ampoules of frozen cells were thawed by submerging into a 37° C. water bath for 45 s. […] With supernatant discarded, cell pellets were further resuspended with 5 ml complete medium into 25 cm^2 cell culture flasks (Cell+, Sarstedt, Nümbrecht, Germany). Tumor cells were cultured until sub-confluence and further sub-cultured with Trypsin (0.5%), EDTA (0.2%) solution (T4174, TE-10x, Sigma) in sterile sodium chloride. Culture media was changed two-three times a week. Culture flasks (Cell+, Sarstedt, Nümbrecht, Germany) and culture plates (Falcon/BD, Franklin Lakes, N.J., USA) were used for experimental set-ups. Cells were regularly monitored using an inverted microscope connected to a digital photo equipment (Axiovert 25 and Axiovision, Zeiss, Carl Zeiss AG, Germany) (FIG. 1). Described culture techniques and equipment have been used extensively in the laboratory
(§2) The proliferation rates of the different human tumor cell lines were studied using a method based on the conversion of a sodium salt (XTT-assay, Sigma) into a stable orange color that could be analyzed in a spectrophotometer. […] The color change was measured using a 96-well plate reader with software to calculate the absorbance at 450 nm (V-max/Softmax Pro, Molecular Devices, USA).
(§3) Increasing concentrations of substance ivermectin was added with an 8-channel pipette (Titertek, Kem-En-Tec, Taastrup, Denmark) together with sterile pipette tips (Molecular Bioproducts, San Diego, Calif., USA). Cell cultures including active substances were incubated for 24 hours (and 96 hours). Untreated wells including culture medium only served as untreated controls. The XTT-assay substrate was added and after gentle agitation using a micro plate shaker, absorbencies at 450 and 650 nm were measured. Levels from medium were subtracted and compared with control wells, using culture medium only.

[2] = test system: colorectal cell line (Colo205); assay: XTT-assay proliferation rate, colorectal cell line Colo205; settings: Colo205 (Table 4), no IVM
From the text: Commercially available human tumor cell lines were purchased from […], Borás, Sweden). Cell lines from urinary bladder (UM-UC-3, #CRL-1749), colorectal carcinoma (Colo205, #CCL-222 and HT29, #HTB-38), prostate carcinoma (LNCaP, #CRL-1740) and breast carcinoma (ZR-75-1, #CRL-1500) were purchased and stored in liquid nitrogen. […] Tumor cell lines were handled aseptically using a laminar airflow (LAF) bench (Holten 2448, Ninolab, Sweden) and stored in a liquid nitrogen tank and were initiated in culture as previously described (Falk P. Experimental models of the peritoneal environment: Effects of TGF-beta and Hyaluronan. Göteborg: University of Gothenburg; 2008). Briefly, ampoules of frozen cells were thawed by submerging into a 37° C. water bath for 45 s. […] Culture media was changed two-three times a week. Culture flasks (Cell+, Sarstedt, Nümbrecht, Germany) and culture plates (Falcon/BD, Franklin Lakes, N.J., USA) were used for experimental set-ups. […] Described culture techniques and equipment have been used extensively in the laboratory The proliferation rates of the different human tumor cell lines were studied using a method based on the conversion of a sodium salt (XTT-assay, Sigma) into a stable orange color that could be analyzed in a spectrophotometer. The color change is proportional to the mitochondrial dehydrogenase activity resulting in an effective technique for measuring cell toxicity (Roehm N W, Rodgers […], Glasebrook A L. An improved colorimetric assay for cell proliferation and viability utilizing the tetrazolium salt XTT. […] The color change was measured using a 96-well plate reader with software to calculate the absorbance at 450 nm (V-max/Softmax Pro, Molecular Devices, USA). […] RPMI 1640 and EMEM without phenol red was used during the experiments to reduce the red color background signal in the XTT-assay. […] Untreated wells including culture medium only served as untreated controls. The XTT-assay substrate was added and after gentle agitation using a micro plate shaker, absorbencies at 450 and 650 nm were measured. Levels from medium were subtracted and compared with control wells, using culture medium only.

[3] = test system: breast cell line (ZR-75-1); assay: XTT-assay proliferation rate, breast cell line; settings: ZR-75-1 (Table 6), no IVM
Procedure: as §1, §2, §3

[4] = test system: colorectal cells (Colo205); assay: Morphology of cultured tumor cells, Colo205; settings: ivermectin 10 μM alone, albendazole 20 and 40 μM alone (FIG. 11)
Procedure: as §1
(§4) The effect of Ivermectin, selamectin, abamectin alone, or in combination with ketoconazole, albendazole, ibuprofen, diclofenac and celecoxib on the morphology of cultured human tumor cells was studied. The effect of ivermectin in the presence of increasing concentration of ivermectin was also investigated. Cells were grown into sub-confluence and then sub-cultured into 12 and 24 well plates (Sarstedt, Falcon/BD) for morphology studies, or in 96 well plates (Sarstedt, Falcon/BD) for proliferation studies.

[5] = test system: prostatic cell line (LNCaP); assay: XTT-assay proliferation rate, prostatic cell line; settings: LNCaP (Table 5); single agent 10 μmol/L, no IVM
Procedure: as §1, §2, §3

prostate cells (LNCaP) = assay: Morphology of cultured tumor cells, LNCaP
Procedure: as §1, §4

[6] = test system: prostatic cell line (LNCaP); assay: XTT-assay proliferation rate, prostatic cell line; settings: for Proliferation rate compared to untreated control: LNCaP (Table 5), no IVM

SMILES: CC(C)Cc1ccc(C(C)C(=O)O)cc1 (racemic) [ibuprofen, (RS)-2-(4-(2-methylpropyl)phenyl)propanoic acid]
- Proliferation rate compared to untreated medium control ([1]; single agent 10 μmol/L): 103 ± 2%
- Proliferation rate compared to untreated medium control ([1]; single agent 20 μmol/L): 106 ± 2%
- Proliferation rate compared to untreated medium control ([1]; single agent 40 μmol/L): 99 ± 3%
- Proliferation rate compared to medium control ([2]; single agent 10 μmol/L): 90.1 ± 8.8%
- Proliferation rate compared to medium control ([2]; single agent 20 μmol/L): 92.2 ± 8.2%
- Proliferation rate compared to medium control ([2]; single agent 40 μmol/L): 90.8 ± 6.3%
- Proliferation rate compared to untreated control ([3]; single agent 10 μmol/L): 115.2 ± 3.8%
- Proliferation rate compared to untreated control ([3]; single agent 20 μmol/L): 116.2 ± 1.9%
- Proliferation rate compared to untreated control ([3]; single agent 40 μmol/L): 108.7 ± 6.7%

SMILES: CCCSc1ccc2nc(NC(=O)OC)[nH]c2c1 [albendazole, Methyl[6-(propylthio)-1H-benzoimidazol-2-yl]carbamate]
- Decreased growth of cells, substances tested alone [4]: not seen

SMILES: Cc1ccc(-c2cc(C(F)(F)F)nn2-c2ccc(S(N)(=O)=O)cc2)cc1 [celecoxib, 4-[5-(4-methylphenyl)-3-(trifluoromethyl)pyrazol-1-yl]benzenesulfonamide]
- Proliferation rate compared to untreated medium control ([1]; single agent 10 μmol/L): 103 ± 9%
- Proliferation rate compared to untreated medium control ([1]; single agent 20 μmol/L): 100 ± 6%
- Proliferation rate compared to untreated medium control ([1]; single agent 40 μmol/L): 106 ± 1%
- Proliferation rate compared to medium control ([2]; single agent 10 μmol/L): 98.7 ± 15.8%
- Proliferation rate compared to medium control ([2]; single agent 20 μmol/L): 94.8 ± 2.5%
- Proliferation rate compared to medium control ([2]; single agent 40 μmol/L): 94.5 ± 6.6%
- Proliferation rate compared to untreated control ([3]; single agent 10 μmol/L): 116.5 ± 4.4%
- Proliferation rate compared to untreated control ([3]; single agent 20 μmol/L): 110.6 ± 13.3%
- Proliferation rate compared to untreated control ([3]; single agent 40 μmol/L): 95.2 ± 4.9%

SMILES: CC(=O)N1CCN(c2ccc(OC[C@H]3CO[C@](Cn4ccnc4)(c4ccc(Cl)cc4Cl)O3)cc2)CC1 [ketoconazole, 1-[4-(4-{[(2R,4S)-2-(2,4-Dichlorophenyl)-2-(1H-imidazol-1-ylmethyl)-1,3-dioxolan-4-yl]methoxy}phenyl)piperazin-1-yl]ethan-1-one]
- Proliferation rate compared to untreated medium control ([1]; single agent 10 μmol/L): 95 ± 6%
- Proliferation rate compared to untreated medium control ([1]; single agent 20 μmol/L): 99 ± 6%
- Proliferation rate compared to untreated medium control ([1]; single agent 40 μmol/L): 103 ± 2%
- Proliferation rate compared to medium control ([2]; single agent 10 μmol/L): 94.8 ± 6.3%
- Proliferation rate compared to medium control ([2]; single agent 20 μmol/L): 93.4 ± 8.1%
- Proliferation rate compared to medium control ([2]; single agent 40 μmol/L): 72.1 ± 15.5%
- Proliferation rate compared to untreated control [5]: 104.6±3.0%
- Effect on morphology (prostate cells (LNCaP); ketoconazole 10 μM): not microscopically affected
- Effect on morphology (prostate cells (LNCaP); ketoconazole 20 and 40 μM): did affect morphology
- Proliferation rate compared to untreated control ([6]; single agent 10 μmol/L, listed as Ket): 104.6 ± 3.0%
- Proliferation rate compared to untreated control ([6]; single agent 20 μmol/L): 76.3 ± 2.3%
- Proliferation rate compared to untreated control ([6]; single agent 40 μmol/L): 68.0 ± 1.8%
- Effect on proliferation rate ([6]; LNCaP, ketoconazole alone at 20 and 40 μM): decreased the proliferation rate
